In the NIST ThermoML archive (doi:10.1021/je0501639):
± gives the expanded uncertainty stated by the source.

Assays:
[1] = xn = mol fraction of the nth substance listed; settings: 100.8 kPa, Liquid; for viscosity: Falling or rolling sphere viscometry
[2] = refractive index (Na D-line) (dimensionless); xn = mol fraction of the nth substance listed; settings: 100.8 kPa, Liquid, Standard Abbe refractometry

CC(C)(C)O [2-methylpropan-2-ol] + CCO
Settings	mass density, 298.15 K [kg/m3]	mass density, 308.15 K [kg/m3]	mass density, 318.15 K [kg/m3]	refractive index, 298.15 K	refractive index, 308.15 K	refractive index, 318.15 K	viscosity, 298.15 K [mPa·s]	viscosity, 308.15 K [mPa·s]	viscosity, 318.15 K [mPa·s]
[1], x2 = 0	780.99 ± 0.31	770.7 ± 0.31	760.05 ± 0.32	–	–	–	4.43 ± 0.04	2.622 ± 0.027	1.708 ± 0.02
[1], x2 = 0.05	782.27 ± 0.3	772.23 ± 0.31	761.94 ± 0.31	–	–	–	4.295 ± 0.039	2.587 ± 0.026	1.73 ± 0.02
[1], x2 = 0.1	782.82 ± 0.3	772.95 ± 0.3	762.82 ± 0.31	–	–	–	4.135 ± 0.037	2.536 ± 0.025	1.719 ± 0.019
[1], x2 = 0.15	783.19 ± 0.29	773.6 ± 0.3	763.53 ± 0.3	–	–	–	3.949 ± 0.035	2.463 ± 0.025	1.698 ± 0.019
[1], x2 = 0.2	783.47 ± 0.29	774.03 ± 0.29	764.14 ± 0.3	–	–	–	3.752 ± 0.033	2.374 ± 0.024	1.662 ± 0.019
[1], x2 = 0.25	783.65 ± 0.29	774.34 ± 0.29	764.59 ± 0.3	–	–	–	3.552 ± 0.032	2.277 ± 0.023	1.618 ± 0.018
[1], x2 = 0.3	783.81 ± 0.28	774.62 ± 0.29	765.01 ± 0.29	–	–	–	3.348 ± 0.03	2.18 ± 0.022	1.568 ± 0.018
[1], x2 = 0.35	783.94 ± 0.28	774.87 ± 0.28	765.41 ± 0.29	–	–	–	3.134 ± 0.028	2.082 ± 0.021	1.515 ± 0.017
[1], x2 = 0.4	784.03 ± 0.28	775.07 ± 0.28	765.74 ± 0.29	–	–	–	2.905 ± 0.026	1.978 ± 0.02	1.456 ± 0.017
[1], x2 = 0.45	784.11 ± 0.27	775.29 ± 0.28	766.04 ± 0.28	–	–	–	2.668 ± 0.024	1.877 ± 0.019	1.395 ± 0.017
[1], x2 = 0.5	784.18 ± 0.27	775.45 ± 0.27	766.31 ± 0.28	–	–	–	2.462 ± 0.023	1.772 ± 0.019	1.332 ± 0.016
[1], x2 = 0.55	784.29 ± 0.27	775.61 ± 0.27	766.58 ± 0.28	–	–	–	2.272 ± 0.021	1.675 ± 0.018	1.272 ± 0.016
[1], x2 = 0.6	784.32 ± 0.26	775.68 ± 0.27	766.72 ± 0.27	–	–	–	2.097 ± 0.02	1.575 ± 0.017	1.213 ± 0.015
[1], x2 = 0.65	784.4 ± 0.26	775.77 ± 0.27	766.87 ± 0.27	–	–	–	1.934 ± 0.019	1.475 ± 0.017	1.153 ± 0.015
[1], x2 = 0.7	784.42 ± 0.26	775.85 ± 0.26	767.01 ± 0.27	–	–	–	1.782 ± 0.018	1.38 ± 0.016	1.092 ± 0.015
[1], x2 = 0.75	784.49 ± 0.26	775.93 ± 0.26	767.15 ± 0.27	–	–	–	1.644 ± 0.017	1.291 ± 0.016	1.032 ± 0.014
[1], x2 = 0.8	784.62 ± 0.25	776.07 ± 0.26	767.27 ± 0.26	–	–	–	1.518 ± 0.017	1.206 ± 0.015	0.974 ± 0.014
[1], x2 = 0.85	784.75 ± 0.25	776.18 ± 0.26	767.41 ± 0.26	–	–	–	1.4 ± 0.016	1.126 ± 0.015	0.919 ± 0.014
[1], x2 = 0.9	784.86 ± 0.25	776.28 ± 0.25	767.51 ± 0.26	–	–	–	1.285 ± 0.015	1.048 ± 0.014	0.862 ± 0.014
[1], x2 = 0.95	785.02 ± 0.25	776.4 ± 0.25	767.6 ± 0.26	–	–	–	1.188 ± 0.015	0.976 ± 0.014	0.805 ± 0.013
[2], x2 = 0	–	–	–	1.38481 ± 0.00033	1.3796 ± 0.00033	1.37416 ± 0.00033	–	–	–
[2], x2 = 0.05	–	–	–	1.38427 ± 0.00033	1.37911 ± 0.00033	1.37378 ± 0.00033	–	–	–
[2], x2 = 0.1	–	–	–	1.38367 ± 0.00033	1.37861 ± 0.00033	1.37336 ± 0.00033	–	–	–
[2], x2 = 0.15	–	–	–	1.38294 ± 0.00032	1.37797 ± 0.00032	1.37284 ± 0.00032	–	–	–
[2], x2 = 0.2	–	–	–	1.38213 ± 0.00032	1.37726 ± 0.00032	1.37224 ± 0.00032	–	–	–
[2], x2 = 0.25	–	–	–	1.38123 ± 0.00032	1.37648 ± 0.00032	1.3715 ± 0.00032	–	–	–
[2], x2 = 0.3	–	–	–	1.38027 ± 0.00032	1.37558 ± 0.00032	1.37072 ± 0.00032	–	–	–
[2], x2 = 0.35	–	–	–	1.37923 ± 0.00032	1.37463 ± 0.00032	1.36984 ± 0.00032	–	–	–
[2], x2 = 0.4	–	–	–	1.37813 ± 0.00032	1.3736 ± 0.00032	1.36891 ± 0.00032	–	–	–
[2], x2 = 0.45	–	–	–	1.37698 ± 0.00032	1.37253 ± 0.00032	1.36791 ± 0.00032	–	–	–
[2], x2 = 0.5	–	–	–	1.37576 ± 0.00032	1.37136 ± 0.00032	1.36682 ± 0.00032	–	–	–
[2], x2 = 0.55	–	–	–	1.37449 ± 0.00032	1.37013 ± 0.00032	1.36567 ± 0.00032	–	–	–
[2], x2 = 0.6	–	–	–	1.37312 ± 0.00032	1.36883 ± 0.00032	1.36442 ± 0.00032	–	–	–
[2], x2 = 0.65	–	–	–	1.37171 ± 0.00032	1.36741 ± 0.00032	1.36304 ± 0.00032	–	–	–
[2], x2 = 0.7	–	–	–	1.37018 ± 0.00032	1.36593 ± 0.00032	1.36162 ± 0.00032	–	–	–
[2], x2 = 0.75	–	–	–	1.36859 ± 0.00032	1.36438 ± 0.00032	1.36007 ± 0.00032	–	–	–
[2], x2 = 0.8	–	–	–	1.3669 ± 0.00032	1.36271 ± 0.00032	1.35848 ± 0.00032	–	–	–
[2], x2 = 0.85	–	–	–	1.36515 ± 0.00031	1.36096 ± 0.00031	1.35677 ± 0.00031	–	–	–
[2], x2 = 0.9	–	–	–	1.36332 ± 0.00031	1.35914 ± 0.00031	1.35498 ± 0.00031	–	–	–
[2], x2 = 0.95	–	–	–	1.36137 ± 0.00031	1.3572 ± 0.00031	1.35308 ± 0.00031	–	–	–
